Assay results as given in EP4792811A1, “S1PR4 REGULATOR COMPOUND FOR MUSCLE DISEASE TREATMENT AND APPLICATION THEREOF” (Shengyuan Zetong (Shanghai) Pharmaceutical Co., Ltd, priority 2023, dated 2025).

Experiments:
[1] = molecular target: T1, S1PR4 (Homo sapiens, UniProt O95977); assay: S1PR4 internalization function test in S1PR4-293T cells; type: cell-based; settings: 1 µM, 37 °C, 1.5 hours; detected immediately, or at 5 hours or 20 hours after treatment
T1 construct: expressed in transfected cells; host or cells: 293T
T1 sequence (O95977 1-384): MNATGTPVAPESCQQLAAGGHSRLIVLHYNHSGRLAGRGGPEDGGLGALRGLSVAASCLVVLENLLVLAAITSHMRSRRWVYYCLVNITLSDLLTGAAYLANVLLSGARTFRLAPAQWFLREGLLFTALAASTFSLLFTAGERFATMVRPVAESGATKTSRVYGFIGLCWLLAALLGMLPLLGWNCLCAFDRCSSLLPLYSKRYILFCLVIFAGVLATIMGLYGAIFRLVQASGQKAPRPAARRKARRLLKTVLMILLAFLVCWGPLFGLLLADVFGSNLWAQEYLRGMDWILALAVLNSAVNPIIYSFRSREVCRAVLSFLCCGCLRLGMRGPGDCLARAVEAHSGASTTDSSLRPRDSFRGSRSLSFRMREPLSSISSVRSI
Procedure: Therefore, the recovery degree of S1PR4 after internalization caused by Compound 30 was evaluated, and the recovery effect following receptor internalization caused by Compound 30 was assessed in cells with high S1PR4 expression.

[2] = molecular target: T2, hS1P1 (Homo sapiens, UniProt P21453); assay: Tango β-arrestin recruitment assay, Tango-hS1P1-CHO; type: cell-based; settings: selectivity table; Tango-S1PR1-CHO-K1 cells
T2 construct: expressed in transfected cells; host or cells: CHO-K1
Summary of the method: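 CHO-K1 cells co-express receptor–V2 tail–NTEV–tTA, CTEV–truncated β-arrestin 2 and a tTA-driven luciferase reporter. 10,000 cells/well were plated for 20 h, then treated 20 h with 9 five-fold dilutions from 45 µM final, with luminescence read-out. BAF-312 positive control was 1 µM for S1P1 and 25 µM for S1P4. EC50 is mean ± SD, ≥2 determinations.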

[3] = system: S1PR4-R82C/NDUFA10-R217W double-mutant mice; assay: In vivo efficacy in S1PR4-R82C/NDUFA10-R217W double-mutant muscular dystrophy mice; settings: for grip strength (ratio of grip strength to body weight): after 21 days of treatment; for body weight gain trend: compared with the model group; for collagen deposition (collagen area ratio): after administration
Procedure: Experimental Animals: A total of 34 S1PR4-R82C/NDUFA10-R217W mice were divided into 6 groups as shown below.
Intragastric administration was initiated on Day 0, and body weight was measured daily during the experiment to adjust the drug dosage. Grip strength was measured at the beginning and end of the experiment to observe motor changes in mice. Changes in the limb grip strength, serum creatine kinase content, and muscle fibrosis/inflammation in mice were detected as indicators for evaluating drug efficacy.
The mouse was placed horizontally on the grip test board. The mouse's tail was held and pulled gently in the opposite direction without using excessive force. The tail was gradually pulled until the mouse released the grip force sensor. The maximum value recorded by the grip force sensor is the grip strength. The test was repeated for 3 times and the average value was taken.
After the completion of administration, blood was collected via the orbital sinus, allowed to stand for 30 minutes, centrifuged at 3000 rpm at 4°C for 15 minutes, and serum was extracted, stored frozen at -20°C, and detected in accordance with the kit instructions.
After the experiment, the tibialis anterior, extensor digitorum longus, and diaphragm of the mice were harvested, fixed, sectioned, and subjected to HE staining and Sirius Red staining to observe the degree of muscle fibrosis. The slice was subjected to immunofluorescence staining with F4/80 to observe the level of muscle inflammation.

[4] = 0.3 mg/kg intragastric once daily
[5] = 1 mg/kg intragastric once daily
[6] = 1 mg/kg intragastric once daily, after treatment
[7] = 3 mg/kg intragastric once daily

T2 sequence (P21453 whole entry): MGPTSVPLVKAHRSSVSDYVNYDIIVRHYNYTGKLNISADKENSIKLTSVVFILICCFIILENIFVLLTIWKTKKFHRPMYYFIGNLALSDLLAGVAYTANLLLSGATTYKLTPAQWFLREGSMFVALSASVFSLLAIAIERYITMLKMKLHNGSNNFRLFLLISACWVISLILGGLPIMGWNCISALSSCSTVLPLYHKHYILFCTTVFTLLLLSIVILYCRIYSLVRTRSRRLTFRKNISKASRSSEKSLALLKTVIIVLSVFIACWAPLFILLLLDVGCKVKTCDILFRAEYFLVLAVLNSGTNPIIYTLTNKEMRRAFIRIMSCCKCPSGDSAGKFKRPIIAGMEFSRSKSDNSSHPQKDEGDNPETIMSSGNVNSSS

With `CCc1cc(/C(C)=N/OCc2ccc(-c3ccccc3)c(C)c2)ccc1CN1CC[C@H](C(=O)O)C1` [Compound 30] the “S1PR4 internalization (expression of S1PR4 receptor on the cell surface)” value [1] was “sustained internalization capacity”, the Emax [2] was 102% and the “grip strength (ratio of grip strength to body weight)” value [3, 4] was “significantly increased”. For the same compound, the “body weight gain trend” value [3, 4] was “no difference”, the “grip strength (ratio of grip strength to body weight)” value [3, 5] was “significantly increased” and the “collagen deposition (collagen area ratio)” value [3, 5] was “significantly reduced collagen deposition”. For the same compound, the “macrophage content (F4/80 immunofluorescence, muscle inflammation)” value [3, 6] was “greatest reduction”, the “number of centrally nucleated fibers (HE staining)” value [3, 6] was “greatest reduction” and the “serum creatine kinase level” value [3, 6] was “significantly reduced”. For the same compound, the “body weight gain trend” value [3, 5] was “no difference”, the “collagen deposition (collagen area ratio)” value [3, 7] was “significantly reduced collagen deposition” and the “body weight gain trend” value [3, 7] was “no difference”. For the same compound, the “serum creatine kinase level” value ([3]; 4 mg/kg (so in the source) intragastric once daily, after treatment) was “significantly reduced”.
